Laboratory results taken from patent publication US9173875B2, “Treatment for nicotine-induced lung disease using peroxisome proliferator-activated receptor gamma agonists” (Los Angeles Biomedical Research Institute at Harbor-UCLA …, priority 2006, dated 2015).
Like-named read-outs stand apart in the source and are kept apart here.

Columns and labels:
PTHrP receptor = target: T1, PTHrP receptor (Homo sapiens, UniProt Q03431); assay: PTHrP receptor binding assay; conditions: nicotine 1×10^−6 M
T1 construct: 10-12 μg membrane protein; endogenous in cells; host or cells: WI38 human embryonic lung fibroblasts (inferred; the assay text only says membrane protein)
T1 sequence (Q03431 27-593): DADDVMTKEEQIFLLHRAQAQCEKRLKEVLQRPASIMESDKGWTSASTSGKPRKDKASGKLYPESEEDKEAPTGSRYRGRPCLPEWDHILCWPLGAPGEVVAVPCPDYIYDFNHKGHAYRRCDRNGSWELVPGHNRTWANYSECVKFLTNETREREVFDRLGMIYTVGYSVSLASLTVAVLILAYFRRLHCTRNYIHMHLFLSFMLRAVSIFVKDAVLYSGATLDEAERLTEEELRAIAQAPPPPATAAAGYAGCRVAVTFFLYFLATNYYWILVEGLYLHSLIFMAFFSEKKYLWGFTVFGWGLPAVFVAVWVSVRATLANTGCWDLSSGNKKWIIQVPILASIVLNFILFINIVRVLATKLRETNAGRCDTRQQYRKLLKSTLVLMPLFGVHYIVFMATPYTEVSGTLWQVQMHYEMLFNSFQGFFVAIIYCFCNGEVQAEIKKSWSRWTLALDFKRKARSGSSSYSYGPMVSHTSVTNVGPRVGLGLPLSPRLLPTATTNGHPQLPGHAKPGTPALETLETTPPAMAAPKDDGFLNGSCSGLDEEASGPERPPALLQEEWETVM
Description: The receptor binding assay was carried out as previously described (Torday and Rehan (2002) Am. J. Physiol. Lung Cell Mol. Physiol. 283: L130-L135; Torday and Rehan (2003) Cell Biochem Biophys 37: 235-246). The assay mixture, in a total volume of 0.1 ml, contained 50 mM Tris.HCl (pH 7.4), 2 mM dithiothreitol, 10 mM EDTA, 10 μg/ml each of protease inhibitors (leupeptin, pepstatin, antipain, and aprotinin), 0.5 mM phenylmethylsulfonyl fluoride, 10 mg/ml BSA, 5 mM MgCl2, […] [1251]-Tyr34-PTHrP-(1-34) (specific activity 1,064 Ci/mmol), 10-12 μg membrane protein, and 1×10-10 to 1×10^−6 M PTHrP-(1-34). Triplicate samples were incubated for 30 min at 30° C. Reactions were stopped by the addition of 0.1 ml of homogenization buffer containing 20 mg/ml of BSA and placed in ice-cold water for 30 min, followed by centrifugation at 15,000 g for 1 min. The supernatant was aspirated, and the pellet was counted for radioactive content with a gamma counter (model 1470; Wallace, Gaithersburg, Md.). Nonspecific binding was determined in the presence of 1 μM nonradioactive PTHrP-(1-34). Specific binding of [^125I]-Tyr34-PTHrP-(1-34) was calculated as total binding minus nonspecific binding and expressed as femtomoles per milligrams of protein. […] The effect of nicotine (1×10^−6 M) on PTHrP receptor binding was examined without and with the nACh receptor antagonists D-tubocurarine, α-bungarotoxin, or mecamylamine (1×10^−9 to 1×10^−6 M).

[1] = tested on: fetal alveolar type II (ATII) cells; assay: In vivo ATII cell proliferation assay (PCNA and SP-C double labeling) after in utero nicotine; design: species or system Sprague-Dawley rat
fetal ATII cells = assay: Ex vivo ATII cell proliferation assay (tetrazolium dye) after in utero nicotine; design: species or system Sprague-Dawley rat; conditions: nicotine 1 mg/kg in utero; vs control, P<0.05, n=6
Description: Pathogen-free timed (embryonic day 0=day of mating) pregnant Sprague-Dawley rats (200-250 g body wt) were obtained from Charles River (Hollister, Calif.) at embryonic day 3 and allowed to acclimatize until embryonic day 6. […] The fetuses were extracted by cesarean section, and the lungs were snap frozen for later analysis or processed for ATII cell or fibroblast culture. […] Louis, Mo.; 0.25 mg/kg). All studies were approved by the Los Angeles Biomedical Research Institute Institutional Review Board and were conducted in accordance with the National Institutes of Health Guide for the Care and Use of Laboratory Animals. ATII cells were isolated using differential adherence in monolayer culture, as described previously (Battenburg et al. (1990) Biochim. Biophys. Acta 960: 441-456). Briefly, three to five […] used per preparation. The fetuses were delivered via cesarean section, and fetal lungs were placed in Hanks' balanced salt solution without calcium and magnesium. […] A Teflon stirring bar was used to further dissociate the lungs by mechanical disruption of the tissue during incubation in a 37° C. water bath. After the tissue was dispersed into a unicellular suspension, the cells were pelleted at 500 g for 10 min at room temperature in a 50-ml polystyrene centrifuge tube. […] The cell suspension was then added to 75-cm^2 (T-75) culture flasks for 30-60 min to allow for differential adherence of lung fibroblasts. The unattached cells were then transferred to another T-75 culture flask for an additional 60 min. After this second culture period, the medium and nonadherent cells were removed from the flask and diluted with 1 vol of culture medium. This diluted suspension was cultured overnight in a T-75 culture flask at 37° C. in a CO2 incubator to allow the ATII cells to adhere. […] According to the manufacturer's protocol, cell proliferation was determined by the tetrazolium dye assay, which is based on the conversion of a tetrazolium salt to a red formazan product by living cells (Cell Proliferation Assay, Promega).

WI38 cells [2] = tested on: WI38 cells
WI38 cells [3] = conditions: 7 days, vs control; for change in PTHrP receptor mRNA expression: means±SE
ATII cells [4] = conditions: nicotine 24 h
ATII cells [5] = tested on: ATII cells
[6] = nicotine 1×10^6 M (so in the source)

SMILES: CN1CCCC1c1cccnc1 (stereo not drawn) [nicotine]
- decrease in PTHrP binding to its receptor (PTHrP receptor): 30%
- increase in alveolar type II cell proliferation vs control group ([1]; nicotine 1 mg/kg i.p. once daily to dam, e6 to e20): 2 fold
- ATII cell proliferation (PCNA and SP-C staining) ([1]; nicotine 1 mg/kg in utero, P<0.05, n=4): almost twofold increase
- ATII cell proliferation, tetrazolium dye assay (fetal ATII cells): almost twofold increase
- expression of nACh receptors α3 and α7 (WI38 cells [2]): significant increases
- change in PTHrP receptor mRNA expression (WI38 cells [3]; [6]): 40±3%
- change in ADRP mRNA expression (WI38 cells [3]; [6]): −47±4%
- change in PPAR mRNA expression (WI38 cells [3]; [6]): −37±3%
- change in α-SMA mRNA expression (WI38 cells [3]; [6]): +140±5%
- change in PTHrP receptor mRNA expression (WI38 cells [3]; nicotine 1×10^−9 M): −33±8%
- change in ADRP mRNA expression (WI38 cells [3]; nicotine 1×10^−9 M): −41±8%
- change in PPAR mRNA expression (WI38 cells [3]; nicotine 1×10^−9 M): −26±7%
- change in α-SMA mRNA expression (WI38 cells [3]; nicotine 1×10^−9 M): +38±4%
- ATII cell proliferation, direct stimulation in vitro (ATII cells [4]): no effect
- [13C]glucose labeling of the acetyl-CoA pool (ATII cells [5]; in utero nicotine): modest increase
- de novo palmitate synthesis as a function of total palmitate (ATII cells [5]; rat, in vivo): almost doubled
- ribose synthesis via the nonoxidative transketolase pathway (ATII cells [5]; rat, in vivo): significant decrease
- ribose synthesis via the oxidative glucose-6-phosphate dehydrogenase pathway (ATII cells [5]; rat, in vivo): significant increase
